Measured values: paper PMC12261219, “Comparative Evaluation of Thiol- and Amine-Conjugating Moieties for Endogenous Albumin Binding after Intravenous Administration” (ACS Pharmacology & Translational Science, 2025)
Where “and” joins values, the source holds several entries; their conditions need not be identical. Identical values can stand only once.

What was measured:
[1] = Hydrolytic stability in buffer (HPLC); format: physicochemical; settings: for Intact compound after 25 h: 0.5 mM
Protocol: The samples were incubated at 20 °C and measured over 25 h. Reversed phase high-performance liquid chromatography (RP-HPLC) runs were performed using a Waters Acquity UPLC BEH C18 column (130 Å, 1.7 μm, 3 mm × 50 mm) on a Dionex Thermo Scientific UltiMate 3000 HPLC system, equipped with a HPG-3400RS binary pump and a DAD-3000 UV–vis detector. Chromatograms were evaluated at a wavelength of 220 nm. Milli-Q water (mobile phase A) and acetonitrile (mobile phase B), both containing 0.1% TFA, were used as eluents. The flow rate was consistent at 0.6 mL/min for all measurements using the following gradient: 0–0.5 min A 95:5 B, 0.5–5.5 min linear gradient to A 5:95 B, 5.5–6.5 min A 5:95 B, 6.5–9.2 min A 95:5 B. The same conditions were applied for stability measurements in 100 mM PB at pH 5.5 and 6.5 as well as in 20 mM HEPES and MOPS at pH 7.4. RP-HPLC-MS analyses of the same samples after the stability measurements were conducted on a Waters Acquity UPLC BEH C18 column (130 Å, 1.7 μm, 3 mm × 50 mm) on an Agilent 1260 Infinity II system equipped with a Flexible pump, a 1260 VWD UV–vis detector and the LC–MSD system. Chromatograms were evaluated at a wavelength of 220 nm. Milli-Q water (mobile phase A) and acetonitrile (mobile phase B), both containing 0.1% formic acid, were used as eluents. The flow rate was consistent at 0.6 mL/min for all measurements using the following gradient: 0–0.5 min A 95:5 B, 0.5–6.0 min linear gradient to A 5:95 B, 6.0–7.0 min A 5:95 B, 7.0–7.1 min linear gradient to A 95:5 B, 7.1–8.0 min A 95:5 B.

albumin (human serum) = molecular target: T1, albumin (human serum) (Homo sapiens, UniProt P02768); assay: SEC-ICP-MS albumin binding in human serum; format: in vitro ADME; settings: for Pt195 in HMWF (albumin-bound) / Pt195 in LMWF: 100 µM, 37 °C
T1 construct: Human serum was purchased from Sigma-Aldrich; tissue Sigma-Aldrich; host or cells: human serum
Protocol: (§1) Blood of Bab/c mice was collected under anesthesia via heart puncture. […] Human serum was purchased from Sigma-Aldrich. In order to guarantee a stable pH, all sera were buffered with 150 mM phosphate to pH 7.4 by dissolving the necessary amounts of Na2HPO4 and NaH2PO4 directly in the serum. […] The samples were then incubated in the autosampler at 37 °C and analyzed every hour for 4 or 5 h and after 24 h. Between each sample a pure water blank was measured. For measurements with 10 min intervals the same procedure was followed, but the blank measurements were omitted. For SEC-ICP-MS measurements an Agilent 1260 Infinity system coupled to an Agilent 7800 ICP-HRMS equipped with a dynamic reaction cell was used. Oxygen (purity 5.5, Messer Austria GmbH, Gumpoldskirchen, Austria) was used as reaction gas.

[2] = Reduction with ascorbic acid, release of oxaliplatin (HPLC); format: physicochemical; settings: 0.5 mM, 150 mM PB, pH 7.4, 20 °C, 30 eq. ascorbic acid
Protocol: The samples were incubated at 20 °C and measured over 25 h. […] RP-HPLC runs were performed using a Waters Acquity UPLC HSS T3 column (100 Å, 1.8 μm, 3.0 mm × 50 mm) on a Dionex Thermo Scientific UltiMate 3000 HPLC system, equipped with a HPG-3400RS binary pump and a DAD-3000RS UV–vis detector. Chromatograms were evaluated at a wavelength of 230 nm. Milli-Q water (mobile phase A) and acetonitrile (mobile phase B), both containing 0.1% TFA, were used as eluents. The flow rate was consistent at 0.6 mL/min for all measurements using the following gradient: 0–0.5 min A 99:1 B, 0.5–5.5 min linear gradient to A 1:99 B, 5.5–6.5 min A 1:99 B, 6.5–9.2 min A 99:1 B.

[3] = Serum pharmacokinetics (platinum, ICP-MS) in CT26-bearing Balb/c mice; settings: serum platinum
Protocol: CT26 cells (5 × 10^5 in 50 μL serum-free medium) were injected subcutaneously (s.c.) into the right flank of male Balb/c mice. […] The blood, tumor and organ collection followed the study design in Figure A. Briefly, to assess serum platinum levels, blood was collected after 5 min, 30 min, 5 h and 24 h (2 mice per time point) via the facial vein. The serum was separated by centrifugation (two times 10 min at 900 g) after 10 min clotting at room temperature. […] All collected samples were stored at −20 °C and further processed for platinum measurements via ICP-MS as follows: HNO3 (67–69%, suprapur for trace metal analysis, NORMATOM; Distributor: VWR international, Austria) and conc. H2O2 suprapur (Merck, 30%) were used without further purification. Digestion of tissue (approximately 15–30 mg gravimetrically weighted) was performed with 2 mL of approximately 20% HNO3 and 100 μL H2O2 using an open vessel graphite digestion system (coated graphite heating plate, coated sample holder-top for 25 mL vials, PFA vials and PFA lids; Labter, ODLAB; Distributor: AHF Analysentechnik AG; Germany). Digested samples were diluted in Milli-Q water (18.2 MΩ cm, Milli-Q Advantage, Darmstadt, Germany). For the ICP-MS analysis, platinum and rhenium standards were derived from CPI International (Amsterdam, The Netherlands). The total platinum content was determined with a quadrupole-based Agilent 7800 ICP-MS instrument (Agilent Technologies, Tokyo, Japan) equipped with the Agilent SPS 4 autosampler (Agilent Technologies, Tokyo, Japan) and a MicroMist nebulizer at a sample uptake rate of approximately 0.2 mL/min. An RF power of 1550 W was used as well as nickel cones. Argon was used as plasma gas (15 L/min) and as carrier gas (∼1.1 L/min). The dwell time was set to 0.1 s and the measurements were performed in 6 replicates with 100 sweeps. Rhenium served as internal standard for platinum. The Agilent MassHunter software package (Workstation Software, version C.01.04) was used for data processing.
As platinum was measured in serum, equimolar administered doses were adjusted to correspond to platinum (0.0227 mmol, 4.42 mg platinum). The area under the “concentration”–time curve (AUC) was determined from time 0 to infinity (AUCPt_0‑∞) and from time 0 to 24 h (AUCPt_0–24, based on the last observed sample at 24 h; linear-log trapezoidal calculation method). The terminal slope (λ z ) was determined based on the last two (out of four) measurements (times 5 h and 24 h).

albumin (mouse serum) = molecular target: T2, albumin (mouse serum) (Mus musculus, UniProt P07724); assay: SEC-ICP-MS albumin binding in mouse serum; format: in vitro ADME; settings: for Pt195 in HMWF (albumin-bound) / Pt195 in LMWF: 100 µM, 37 °C
T2 construct: The serum was separated by centrifugation (two times 10 min at 900 g) after 10–20 min clotting at room temperature; from tissue; host or cells: serum of Balb/c mice
Protocol: as §1

α1-antitrypsin = molecular target: T3, α1-antitrypsin (Homo sapiens, UniProt P01009); assay: SEC-ICP-MS with single serum protein solution: α1-antitrypsin; format: binding; settings: 200 μM α1-antitrypsin, 100 μM compound, 100 mM PB pH 7.4, 37 °C, 2 h
T3 construct: purchased Sigma-Aldrich A6150
Protocol: All investigated proteins were purchased from commercial suppliers: Albumin (Sigma-Aldrich, A8763), IgG (Athens Research, 16–16–090707), α1-antitrypsin (Sigma-Aldrich, A6150) and apotransferrin (Sigma-Aldrich, T1147). […] The compound stocks were diluted into the protein solution to reach a final concentration of 100 μM (27 μL protein and 3 μL compound). The samples were incubated at 37 °C for 2 h and analyzed as described for the SEC-ICP-MS studies (Tables S6 and S7).

[4] = pH 7.4, 10 min intervals, 0 min
[5] = pH 7.4, 10 min intervals, 10 min
[6] = pH 7.4, 10 min intervals, 20 min
[7] = pH 7.4, 10 min intervals, 30 min
[8] = pH 7.4, 10 min intervals, 40 min
[9] = pH 7.4, 10 min intervals, 50 min
[10] = pH 7.4, 10 min intervals, 60 min

T1 sequence (P02768 25-609): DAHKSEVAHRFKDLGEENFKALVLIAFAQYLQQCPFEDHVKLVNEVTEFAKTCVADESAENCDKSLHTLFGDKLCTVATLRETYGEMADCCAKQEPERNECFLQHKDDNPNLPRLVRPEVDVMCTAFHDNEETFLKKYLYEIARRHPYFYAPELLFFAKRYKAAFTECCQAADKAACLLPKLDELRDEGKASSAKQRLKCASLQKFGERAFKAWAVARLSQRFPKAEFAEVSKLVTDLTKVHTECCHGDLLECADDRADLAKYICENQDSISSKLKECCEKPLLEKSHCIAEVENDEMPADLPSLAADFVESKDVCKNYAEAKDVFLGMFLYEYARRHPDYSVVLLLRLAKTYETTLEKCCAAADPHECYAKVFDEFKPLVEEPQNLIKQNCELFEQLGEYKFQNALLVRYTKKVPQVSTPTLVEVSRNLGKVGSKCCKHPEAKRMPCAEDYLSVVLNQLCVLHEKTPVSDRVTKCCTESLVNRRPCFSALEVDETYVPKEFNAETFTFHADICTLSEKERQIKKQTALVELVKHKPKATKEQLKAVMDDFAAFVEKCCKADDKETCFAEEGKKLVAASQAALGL
T2 sequence (P07724 25-608): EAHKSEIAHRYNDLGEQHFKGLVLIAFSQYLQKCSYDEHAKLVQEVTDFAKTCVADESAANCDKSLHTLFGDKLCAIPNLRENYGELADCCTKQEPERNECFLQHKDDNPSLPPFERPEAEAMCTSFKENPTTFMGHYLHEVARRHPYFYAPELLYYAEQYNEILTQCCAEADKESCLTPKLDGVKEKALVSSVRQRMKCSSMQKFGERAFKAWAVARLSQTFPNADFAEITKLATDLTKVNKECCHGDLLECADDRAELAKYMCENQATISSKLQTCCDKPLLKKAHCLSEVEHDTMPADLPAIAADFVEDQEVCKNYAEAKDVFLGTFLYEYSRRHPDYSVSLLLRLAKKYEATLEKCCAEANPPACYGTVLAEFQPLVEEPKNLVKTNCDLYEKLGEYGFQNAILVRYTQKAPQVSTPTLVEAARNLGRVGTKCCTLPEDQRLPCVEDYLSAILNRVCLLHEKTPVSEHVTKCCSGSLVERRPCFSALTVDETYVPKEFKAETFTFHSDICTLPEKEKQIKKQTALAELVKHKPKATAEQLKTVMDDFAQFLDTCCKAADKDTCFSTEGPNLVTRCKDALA
T3 sequence (P01009 25-418): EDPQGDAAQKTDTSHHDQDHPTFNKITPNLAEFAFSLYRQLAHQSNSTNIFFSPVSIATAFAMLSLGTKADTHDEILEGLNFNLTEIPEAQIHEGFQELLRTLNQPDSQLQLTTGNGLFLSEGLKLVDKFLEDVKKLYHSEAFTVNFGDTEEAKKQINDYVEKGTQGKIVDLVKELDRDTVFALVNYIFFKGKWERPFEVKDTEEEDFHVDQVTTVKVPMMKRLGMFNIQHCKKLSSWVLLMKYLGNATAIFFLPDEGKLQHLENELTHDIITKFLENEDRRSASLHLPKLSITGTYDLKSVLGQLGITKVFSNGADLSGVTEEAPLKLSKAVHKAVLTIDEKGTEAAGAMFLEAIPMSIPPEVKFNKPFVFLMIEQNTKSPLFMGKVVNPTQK

In the case of `CC(=O)[O][Pt-2]12([O]C(=O)NCCOCCOCCOCCOC(=O)C3=CCCCC3S(=O)(=O)Nc3ccc(F)cc3F)([NH2+]C3CCCCC3[NH2+]1)[O]C(=O)C(=O)[O]2` (mixture of isomers) [DFSA-Ox-OAc, (OC-6–34)-Acetato[(1R,2R)-1,2-cyclohexane-1,2-diamino][(1-(6-(N-(2,4-difluorophenyl)-sulfamoyl)-cyclohex-1-en-1-yl)-1-oxo-2,5,8,11-tetraoxatridecan-13-yl)-carbamato]-oxalato platinum(IV)], the “Intact compound after 25 h” value ([1]; 20 mM HEPES, pH 7.4, 20 °C) was “stable”, the “Intact compound after 25 h” value ([1]; 20 mM MOPS, pH 7.4, 20 °C) was “stable” and the “Intact compound after 25 h” value ([1]; 100 mM PB, pH 5.5, 20 °C) was “stable”. The “Intact compound after 25 h” value ([1]; 100 mM PB, pH 6.5, 20 °C) was “stable”, the “Intact compound after 25 h” value ([1]; 100 mM PB, pH 7.4, 20 °C) was 97% and the “Hydrolytic stability in all tested conditions” value ([1]; PB pH 5.5, 6.5, 7.4, HEPES and MOPS pH 7.4, 20 °C, 25 h) was “stable”. For the same compound, the “Pt195 in HMWF (albumin-bound)” value (albumin (human serum); pH 7.4, 0 h) was 0%, the “Pt195 in LMWF” value (albumin (human serum); pH 7.4, 0 h) was 100% and the “Pt195 in HMWF (albumin-bound)” value (albumin (human serum); pH 7.4, 1 h) was 34%. The “Pt195 in LMWF” value (albumin (human serum); pH 7.4, 1 h) was 66%, the “Pt195 in HMWF (albumin-bound)” value (albumin (human serum); pH 7.4, 2 h) was 50% and the “Pt195 in LMWF” value (albumin (human serum); pH 7.4, 2 h) was 50%. The “Pt195 in HMWF (albumin-bound)” value (albumin (human serum); pH 7.4, 3 h) was 59%, the “Pt195 in LMWF” value (albumin (human serum); pH 7.4, 3 h) was 41% and the “Pt195 in HMWF (albumin-bound)” value (albumin (human serum); pH 7.4, 4 h) was 63%. The “Pt195 in LMWF” value (albumin (human serum); pH 7.4, 4 h) was 37%, the “Pt195 in HMWF (albumin-bound)” value (albumin (human serum); pH 7.4, 5 h) was 66% and the “Pt195 in LMWF” value (albumin (human serum); pH 7.4, 5 h) was 34%. For the same compound, the “Pt195 in HMWF (albumin-bound)” value (albumin (human serum); pH 7.4, 24 h) was 59%, the “Pt195 in LMWF” value (albumin (human serum); pH 7.4, 24 h) was 41% and the Maximum albumin binding (albumin (human serum); reached after several hours) was 66%. The “Oxaliplatin detected (released) after 25 h” value [2] was 10%, the Cmax ([3]; measured at tmax=0.08 h, single i.v. dose 4.42 mg/kg Pt) was 4.61 mg/kg and the “Percentage of AUCPt_0-∞ extrapolated from tlast to infinity” value ([3]; tlast=24 h) was 45.6%. It also gave a Half-life ([3]; terminal half-life, i.v.) of 21.9 h, a CL ([3]; total body clearance, single i.v. dose 4.42 mg/kg Pt) of 0.0685 kg/h/kg and a Vz ([3]; volume of distribution based on the terminal phase, i.v.) of 2.17 kg/kg. The “Pt195 in HMWF (albumin-bound)” value (albumin (mouse serum); [4]) was 2%, the “Pt195 in LMWF” value (albumin (mouse serum); [4]) was 98% and the “Pt195 in HMWF (albumin-bound)” value (albumin (mouse serum); [5]) was 18%. For the same compound, the “Pt195 in LMWF” value (albumin (mouse serum); [5]) was 82%, the “Pt195 in HMWF (albumin-bound)” value (albumin (mouse serum); [6]) was 32% and the “Pt195 in LMWF” value (albumin (mouse serum); [6]) was 68%. For the same compound, the “Pt195 in HMWF (albumin-bound)” value (albumin (mouse serum); [7]) was 43%, the “Pt195 in LMWF” value (albumin (mouse serum); [7]) was 57% and the “Pt195 in HMWF (albumin-bound)” value (albumin (mouse serum); [8]) was 52%. The “Pt195 in LMWF” value (albumin (mouse serum); [8]) was 48%, the “Pt195 in HMWF (albumin-bound)” value (albumin (mouse serum); [9]) was 58% and the “Pt195 in LMWF” value (albumin (mouse serum); [9]) was 42%. The “Pt195 in HMWF (albumin-bound)” value (albumin (mouse serum); [10]) was 63%, the “Pt195 in LMWF” value (albumin (mouse serum); [10]) was 37% and the “Pt195 in LMWF” value (albumin (mouse serum); pH 7.4, 1 h intervals, 0 h) was 99%. The “Pt195 in HMWF (albumin-bound)” value (albumin (mouse serum); pH 7.4, 1 h intervals, 1 h) was 65%, the “Pt195 in LMWF” value (albumin (mouse serum); pH 7.4, 1 h intervals, 1 h) was 35% and the “Pt195 in HMWF (albumin-bound)” value (albumin (mouse serum); pH 7.4, 1 h intervals, 2 h) was 78% and ~80%. The “Pt195 in LMWF” value (albumin (mouse serum); pH 7.4, 1 h intervals, 2 h) was 22%, the “Pt195 in HMWF (albumin-bound)” value (albumin (mouse serum); pH 7.4, 1 h intervals, 3 h) was 82% and the “Pt195 in LMWF” value (albumin (mouse serum); pH 7.4, 1 h intervals, 3 h) was 18%. The “Pt195 in HMWF (albumin-bound)” value (albumin (mouse serum); pH 7.4, 1 h intervals, 4 h) was 82%, the “Pt195 in LMWF” value (albumin (mouse serum); pH 7.4, 1 h intervals, 4 h) was 18% and the “Pt195 in HMWF (albumin-bound)” value (albumin (mouse serum); pH 7.4, 1 h intervals, 24 h) was 70%. For the same compound, the “Pt195 in LMWF” value (albumin (mouse serum); pH 7.4, 1 h intervals, 24 h) was 30%, the Maximum albumin binding (albumin (mouse serum); reached after several hours) was 82% and the “Platinum in the HMWF (protein-bound)” value (α1-antitrypsin) was 20%.
